Data on three compounds can be found in patent US20070066629A1.

Read-outs that look alike come from different tables or passages of the source.

The subject of this assay is Corticium solani (syn. Rhizoctonia sasakii). The conditions noted are these: individual active compound, rice, evaluated after 11 days, untreated control 81% infection.

Protocol: 1% by weight of the emulsifier Uniperol® EL (wetting agent having emulsifying and dispersing action based on ethoxylated alkylphenols) was added to this solution, and the solution was diluted with water to the desired concentration.
The next day, oat grains infected with Corticium solani were placed into the pots (in each case 5 grains per pot). The plants were then placed in a chamber at 26° C. and maximum atmospheric humidity.
Evaluation is carried out by determining the infected leaf areas in percent. These percentages were converted into efficacies.
The efficacy (E) is calculated as follows using Abbot's formula: E=(1−α/β)*100 α corresponds to the fungicidal infection of the treated plants in % and β corresponds to the fungicidal infection of the untreated (control) plants in %
An efficacy of 0 means that the infection level of the treated plants corresponds to that of the untreated control plants; an efficacy of 100 means that the treated plants were not infected.

Turning to `CC1CCN(c2c(-c3c(F)cccc3Cl)c(Cl)nc3ncnn23)CC1` [A], under “1 ppm in the spray liquor”, the “Efficacy in % of the untreated control” value is listed as 26%.

For the compound `CO/C=C(/C(=O)OC)c1ccccc1Oc1cc(Oc2ccccc2C#N)ncn1` [I (azoxystrobin), azoxystrobin], the “Efficacy in % of the untreated control” value (1 ppm in the spray liquor) is 1% and the “Efficacy in % of the untreated control” value (4 ppm in the spray liquor) stood at 26%. Consider `CC1CCN(c2c(-c3c(F)cc(F)cc3F)c(Cl)nc3ncnn23)CC1` [II, 5-chloro-7-(4-methylpiperidin-1-yl)-6-(2,4,6-trifluorophenyl)-[1,2,4]triazolo[1,5-a]pyrimidine], for which the “Efficacy in % of the untreated control” value (1 ppm in the spray liquor) came to 26%.
